What was measured:
TgLaforin [1] = target: T1, TgLaforin (Toxoplasma gondii, UniProt S8F2K7); assay: Library screening at 10 μM; assay type: biochemical
T1 sequence (S8F2K7 1-523): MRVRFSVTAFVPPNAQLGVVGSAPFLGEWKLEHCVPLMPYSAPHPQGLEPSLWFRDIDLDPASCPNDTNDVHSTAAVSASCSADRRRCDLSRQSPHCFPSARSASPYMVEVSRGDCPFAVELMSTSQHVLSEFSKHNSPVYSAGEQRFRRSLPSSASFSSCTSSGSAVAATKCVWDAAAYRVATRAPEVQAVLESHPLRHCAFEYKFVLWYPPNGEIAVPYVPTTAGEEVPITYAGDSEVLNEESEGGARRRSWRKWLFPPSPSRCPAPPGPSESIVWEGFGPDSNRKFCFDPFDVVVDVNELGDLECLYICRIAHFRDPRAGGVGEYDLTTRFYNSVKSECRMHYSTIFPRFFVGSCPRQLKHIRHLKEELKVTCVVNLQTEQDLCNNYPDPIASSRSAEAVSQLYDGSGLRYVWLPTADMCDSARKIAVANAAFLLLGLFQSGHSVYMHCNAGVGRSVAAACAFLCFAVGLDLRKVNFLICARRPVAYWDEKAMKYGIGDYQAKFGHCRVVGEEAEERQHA

TgLaforin [2] = target: T1, TgLaforin; assay: pNPP phosphatase assay
VHR = VHR (Homo sapiens, UniProt P51452); assay: Library screening at 10 μM; settings: read-out: inhibition of VHR
TgLaforin [3] = target: T1, TgLaforin; assay: Malachite green phosphatase assay, phosphate release from solubilized potato amylopectin; assay type: biochemical
Method: Release of phosphate from potato amylopectin was determined as done previously ([23], [24], [42], [93]) with the following modifications. Briefly, phosphate release was monitored using the PiColorLock Phosphate Detection Reagent (Novus Biologicals), a malachite green–based assay. For time course assays, 5 nM recombinant protein was incubated with 90 μg solubilized potato amylopectin (Sigma-Aldrich), supplied as a powder; solubilized at a stock concentration of 5 mg/ml using alcohol/alkaline method (also referred to as the “Roach method” in Ref. ([93])) in phosphatase buffer in a final volume of 80 μl at pH 6.5. […] After 5 min, 8 μl stabilizer solution (0.1 initial reaction volume) was added, and reaction was allowed to develop for 30 min at r.t. before the absorbance of each reaction was measured at 635 nm using a Synergy HTX Multi-Mode Reader (BioTek). Absorbance was converted to pmol Pi release using a Pi absorbance standard curve. […]
(§1) L319-M21-M49 stock solutions were prepared by resuspending the inhibitor in DMSO at a concentration of 20 mM. […] The efficacy of L319-M21-M49 against various phosphatases was determined using the assay conditions described above. […] All reported uncertainties in IC50 values were calculated and presented as standard deviation from the mean of at least three independent replicates, each consisting of three technical replicates. […]

TgLaforin [4] = target: T1, TgLaforin; assay: Radiolabeled (33P) starch phosphatase assay; assay type: biochemical; settings: 33P-labeled insoluble starch
Method: Position-dependent phosphate release from ^33P-labeled starch was performed as previously described ([36], [41], [42], [43]). The substrate for this assay was generated by phosphorylating phosphate-free Arabidopsis sex1-3 starch with β^33P-labeled ATP (Hartmann Analytic) at the C6 and C3 positions sequentially. The starch granules were phosphorylated at the C6 position using purified recombinant StGWD enzyme. Next, the granules were phosphorylated at the C3 position using purified recombinant AtPWD enzyme.
To determine the site-specificity of TgLaforin, TgLaforin (1.3 nM) was incubated separately with 0.6 mg both C6- and C3-^33P-labeled starch in phosphatase buffer (pH 6.5) containing 1 mg/ml bovine serum albumin in a final volume of 150 μl. […] The amount of phosphate released from each starch suspension was quantified by measuring counts per minute (CPM) of the supernatant on a 1900 TR liquid scintillation counter (Packard). […]
as §1

PTP1B = target: T2, PTP1B (Homo sapiens, UniProt P18031); assay: Library screening at 10 μM; settings: read-out: inhibition of PTP1B
T2 sequence (P18031 1-435): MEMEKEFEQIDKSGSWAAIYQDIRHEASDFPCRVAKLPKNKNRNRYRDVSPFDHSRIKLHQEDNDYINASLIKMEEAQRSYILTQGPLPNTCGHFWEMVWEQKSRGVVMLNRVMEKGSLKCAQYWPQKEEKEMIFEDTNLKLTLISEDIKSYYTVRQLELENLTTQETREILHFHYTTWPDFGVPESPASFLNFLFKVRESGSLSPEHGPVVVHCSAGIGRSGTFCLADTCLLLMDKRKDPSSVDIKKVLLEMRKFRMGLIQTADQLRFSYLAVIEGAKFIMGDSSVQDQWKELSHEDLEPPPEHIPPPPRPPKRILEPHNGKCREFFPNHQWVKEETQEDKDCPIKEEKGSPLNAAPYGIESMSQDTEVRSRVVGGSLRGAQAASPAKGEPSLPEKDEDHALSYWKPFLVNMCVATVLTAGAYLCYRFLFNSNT

TgCBM K206A = assay: Differential scanning fluorimetry carbohydrate binding; settings: DSF
TgCBM W278A = assay: as above; settings: DSF
TgCBM = TgCBM (Toxoplasma gondii, UniProt S8F2K7); assay: as above
Method: We next analyzed TgCBM using size-exclusion chromatography coupled with multiangle light scattering (SEC-MALS) to define its oligomerization state. […] To define TgCBM carbohydrate binding, we utilized differential scanning fluorimetry (DSF) ([53], [54]). In the presence of a carbohydrate, an increase in Tm is associated with increased protein stability due to protein–ligand interaction. We incubated TgCBM with the linear oligosaccharide maltohexaose and observed a robust dose-dependent stabilization of TgCBM with an Kd,app = 20 ± 4 mM (Fig. 3E).

Chain of VHR (P51452 whole entry, species assumed): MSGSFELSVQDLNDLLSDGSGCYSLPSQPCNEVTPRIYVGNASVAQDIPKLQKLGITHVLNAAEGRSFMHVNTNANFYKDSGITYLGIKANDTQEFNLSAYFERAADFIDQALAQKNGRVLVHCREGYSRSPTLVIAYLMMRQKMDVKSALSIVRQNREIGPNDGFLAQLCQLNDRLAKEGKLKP

Row | SMILES | inhibition at 10 µM (TgLaforin [1]) | IC50 (TgLaforin [2]) | specificity for TgLaforin over other phosphatases (TgLaforin [2]; pNPP assay, other phosphatases VHR, PTP1B, CIP) | mechanism of inhibition (Lineweaver-Burk plot) (TgLaforin [2]; pNPP substrate) | inhibition at 10 µM (VHR) | IC50 (TgLaforin [3]) | IC50 (TgLaforin [4]; C3, read-out: IC50 phosphate release from C3 position of starch) | IC50 (TgLaforin [4]; C6, read-out: IC50 phosphate release from C6 position of starch) | inhibition at 10 µM (PTP1B) | binding to K206A mutant (TgCBM K206A) | binding to W278A mutant (TgCBM W278A) | Kd (TgCBM)
1 | O=C(Nc1ccc(Oc2ccccc2)cc1)C(=O)Nc1ccccc1NC(=O)C(c1ccccc1)S(=O)(=O)O (stereo not drawn) [L319-21-M49, 2-oxo-2-((2-(2-oxo-2-((4-phenoxyphenyl)amino)acetamido)phenyl)amino)-1-phenylethanesulfonic acid] | > 90% | 1.5 ± 0.3 µM | > 100 fold | competitive inhibitor | < 10% | 5.1 ± 0.4 µM | 6.7 ± 0.1 µM | 6.5 ± 1.4 µM | < 10% | – | – | –
2 | OC[C@H]1O[C@H](O[C@H]2[C@H](O)[C@@H](O)[C@@H](O[C@H]3[C@H](O)[C@@H](O)[C@@H](O[C@H]4[C@H](O)[C@@H](O)[C@@H](O[C@H]5[C@H](O)[C@@H](O)[C@@H](O[C@H]6[C@H](O)[C@@H](O)C(O)O[C@@H]6CO)O[C@@H]5CO)O[C@@H]4CO)O[C@@H]3CO)O[C@@H]2CO)[C@H](O)[C@@H](O)[C@@H]1O (stereo partly drawn) [maltohexaose] | – | – | – | – | – | – | – | – | – | neither mutant was able to bind | neither mutant was able to bind | 20000 ± 4000 µM
